Test results: PubChem BioAssay (NCI)
Where “and” joins values, the source holds several entries; their conditions need not be identical. Identical values can stand only once.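 Values below derive from 48-hour exposures of cells grown in 96-well plates, with endpoints linearly interpolated between the two concentrations bracketing the appropriate inhibition level. The concentration for 50% growth inhibition is given as GI50. TGI: total growth inhibition.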

What was measured:
Assay in all cases: NCI tumour cell line growth inhibition, 48 h
A498 renal = tested on: A498 renal
A549 NSCLC = tested on: A549 NSCLC
DU-145 prostate = tested on: DU-145 prostate
HCT-15 colon = tested on: HCT-15 colon
HS 578T breast = tested on: HS 578T breast
K-562 leukemia = tested on: K-562 leukemia
NCI-H23 lung = tested on: NCI-H23 lung
OVCAR-4 ovarian = tested on: OVCAR-4 ovarian
OVCAR-8 ovarian = tested on: OVCAR-8 ovarian
SF-295 CNS = tested on: SF-295 CNS

Compound | GI50 (A498 renal) [µM] | TGI (A498 renal) [µM] | GI50 (A549 NSCLC) [µM] | TGI (A549 NSCLC) | GI50 (DU-145 prostate) [µM] | TGI (DU-145 prostate) | GI50 (HCT-15 colon) [µM] | TGI (HCT-15 colon) [µM] | GI50 (HS 578T breast) [µM] | TGI (HS 578T breast) [µM] | GI50 (K-562 leukemia) [µM] | TGI (K-562 leukemia) [µM] | GI50 (NCI-H23 lung) [µM] | TGI (NCI-H23 lung) [µM] | GI50 (OVCAR-4 ovarian) | TGI (OVCAR-4 ovarian) | GI50 (OVCAR-8 ovarian) | TGI (OVCAR-8 ovarian) | GI50 (SF-295 CNS) [µM] | TGI (SF-295 CNS) [µM]
COC1=CC(=O)c2nc(-c3cccc(C)n3)[nH]c2C1=O | 16.4 | 35.2 | 19.1 | 39.1 µM | 25.6 | 73.3 µM | 52.5 | > 100 | 25.3 | 76.7 | > 100 | > 100 | 28.3 | > 100 | 20.4 µM | 50.3 µM | 24.7 µM | 78.2 µM | 28.4 | 85.2
CC(=O)CSCc1ccccn1 |  | > 100 |  | > 100 µM |  | > 100 µM |  | > 100 |  | 7.23 |  | 82.3 |  | > 100 |  | > 100 µM |  | > 100 µM |  | > 100
O=C1OC(C(O)CO)C(=O)C1=O (configuration not stated) | 2520 | 8510 | 9790 | > 10000 µM | 1720 | 3130 µM | 3420 | > 10000 | 3250 | 9940 | 2860 | 9080 | 4680 | > 10000 | 5580 µM | > 10000 µM | 5270 µM | > 10000 µM | 7430 | > 10000
Cc1cccc(N2CCN(C(=S)c3ccc4c(c3)OCO4)CC2)c1 | 0.799 | 67.9 | 1.07 | > 100 µM | 2.34 | > 100 µM | 0.625 | > 100 | 0.501 | 5.58 | 0.521 | > 100 | 7.07 | > 100 | 67.7 µM | > 100 µM | 1.81 µM | > 100 µM | 0.409 | > 100
NS(=O)(=O)c1ccc(NC2(C(=O)O)CCCC2)cc1 |  | > 100 |  | > 100 µM |  | > 100 µM |  | > 100 |  | > 100 |  | > 100 |  | > 100 |  | > 100 µM |  | > 100 µM |  | > 100
COc1cc2c(c(OC)c1OC)-c1ccc(OC)c(=O)cc1[C@@H](NC(=O)c1ccccc1)CC2 | < 0.003 |  | < 0.003 | 30 µM and > 100 µM | < 0.003 | 0.0329 µM and 0.237 µM | 0.0444 |  | < 0.003 |  | < 0.003 |  |  | 2.32 | 28.1 µM and 13.4 µM | 30 µM and > 100 µM | 0.00935 µM and 0.0138 µM | 30 µM and 13.8 µM | 0.00623 | 
COc1nc2ccccc2cc1-c1nc2c(cnn2-c2ccc(Br)cc2)c(=O)[nH]1 | 0.0139 | 0.521 | 0.0837 | > 50 µM | 0.0344 | 13.8 µM | 0.0261 | > 50 | 0.0282 | 4.71 | 0.0182 | 13.4 | 0.0825 | 10.9 |  | > 50 µM | 0.0577 µM | > 50 µM | 0.0195 | 1.62
CCCCC(O)(c1ccc(Cl)cc1)C(CN1CCOCC1)c1ccc(Cl)cc1 (configuration not stated) | 11.1 | 24.1 | 12.5 | 30.9 µM | 15.7 | 29.8 µM | 11.2 | 26.2 | 16.8 | 46.5 | 12.2 | 41.1 | 10.6 | 28.7 | 13.6 µM | 29 µM | 15.7 µM | 42 µM | 14.4 | 30.7
C=C1C(=O)O[C@@H]2/C=C(\C)CC/C=C(/COC(C)=O)C[C@@H](OC(C)=O)[C@@H]12 |  | 36.6 |  | > 100 µM |  | 19.2 µM |  | 12.4 |  | > 70.2 |  | > 33.8 |  | 32.5 |  | 45.1 µM |  | > 55.3 µM |  | > 100
COC(=O)C1=CNC=C(C(=O)OC)C1C1=CC(=O)C(C)=CC1=O | 13.1 | 33.6 | 19.6 | 42.1 µM | 16 | 30.3 µM | 17 | 32.6 | 25 | 66.5 | 1.36 | 3.84 | 16.5 | 31 | 20.7 µM | 61.7 µM | 14.3 µM | 29.1 µM | 19.7 | 40.1
CCCCCCCC/C=C/CCCCCCCC(=O)OC[C@H]1O[C@@H](n2ccc(N)nc2=O)C(F)(F)[C@@H]1O | < 0.0218 | 6.32 | < 0.0174 | > 70.1 µM | < 0.019 | > 46.2 µM | 0.117 | > 100 | > 59.9 | > 100 | 0.307 | > 100 | < 0.0143 | 21.1 | > 100 µM | > 100 µM | < 0.01 µM |  | 0.0242 | 0.555
COc1cc(-c2ccc3c(c2)NC(=O)/C3=C\c2ccc[nH]2)ccc1O | 2.09 | 39.2 | 0.0374 | > 50 µM | 0.0193 | > 30.2 µM | 0.0228 | > 50 | 0.026 | > 50 | < 0.0118 | > 50 | 0.0662 | > 50 | 2.58 µM | > 50 µM | 0.0252 µM | > 50 µM | 0.0479 | > 22.6
